Source: patent US9139581B2 (PORTOLA PHARMACEUTICALS, INC., priority 2008, dated 2015)
Where two headings read alike, the source gives them in different places.

Target: T1, full length active recombinant SYK enzyme (Homo sapiens, UniProt P43405)
T1 construct: full length active recombinant SYK enzyme (Millipore, Calif.); purchased Millipore
Assay: Inhibition of Syk tyrosine phosphorylation activity (LANCE TR-FRET)
Assay type: biochemical
Details: 1 nM SYK, 100 μM ATP
Description: The in vitro and in vivo human syk activities of the inventive compounds can be determined by various procedures known in the art, such as a test for their ability to inhibit the activity of human plasma syk. […] Inhibition of Syk Tyrosine Phosphorylation Activity Potency of candidate molecules for inhibiting syk tyrosine phosphorylation activity is assessed by measuring the ability of a test compound to inhibit syk-mediated tyrosine phosphorylation of a syk-specific substrate. SYK tyrosine phosphorylation activity is measured using the LANCETM Technology developed by Perkin Elmer Life and Analytical Sciences (Boston, Mass.). LANCETM refers to homogeneous time resolved fluorometry applications using techniques such as time-resolved fluorescence resonance energy transfer assay (TR-FRET) (see generally for procedures in Perkin Elmer Application Note-How to Optimize a Tyrosine Kinase Assay Using Time Resolved Fluorescence-Based LANCE Detection, wwww.perkinelmer.com/lifesciences). The assay principle involves detection of a phosphorylated substrate using energy transfer from a phosphospecific europium-labeled antibody to streptavidin-allophycocyanin as an acceptor. To test the ability of candidate molecules to inhibit SYK tyrosine phosphorylation activity, molecules are reconstituted in 30% DMSO and serially diluted 1:3 with the final dilution containing DMSO in the absence of the candidate molecule. The final DMSO concentration in the assay is 3%. Kinase assays are performed as a two part reaction. The first reaction is a kinase reaction and which comprises of a candidate molecule, full length active recombinant SYK enzyme (Millipore, Calif.) and biotin-labeled SYK-specific substrate biotin-[…]-OH. The second reaction involves termination of the kinase reaction and the simultaneous addition of the detection reagents-europium-labeled anti-phosphotyrosine reagent (Eu-W1024-PY100, Perkin Elmer, Boston, Mass.) and Streptavidin-Allophycocyanin detection reagent (SA-APC, Prozyme, Calif.). The kinase reaction is performed in a black U-bottom 96-well microtitre plate. […] The reaction is allowed to proceed for 1 hour at room temperature. […] The detection reagents are added to the reaction mixture at the following dilutions-1:500 for Eu-W1024-PY100 and 1:250 for SA-APC. The kinase reaction is terminated by the addition of 50 μL quench buffer containing the detection reagents. The detection is allowed to proceed for 1 hr at room temperature. Detection of the phosphorlated substrate in the absence and presence of inhibitors is measured in the TR-FRET instrument, Analyst HT ([…], Sunnyvale, Calif.) and the condition for measurements are set up using CriterionHost Release 2.0 ([…], Sunnyvale, Calif.). […] IC50s were derived by non-linear regression analysis.

[1] = Table 3, read-out: Syk IC50 code

Row | IC50 [1] | IC50 (Table 4, read-out: syk IC50) | Molecule
1 | 100 to 1000 nM |  | COCCNc1nc(Nc2ccc3cn[nH]c3c2)nc2[nH]ccc12 [Example 89, N^2-(1H-indazol-6-ylamino)-N^4-(2-methoxyethyl)-7H-pyrrolo[2,3-d]pyrimidine-2,4-diamine]
2 | 100 to 1000 nM |  | CC(=O)N(C)c1ccc(Nc2nc(Nc3cccc(CN)c3)c3cc[nH]c3n2)cc1 [Example 97, N-(4-(4-(3-(aminomethyl)phenylamino)-7H-pyrrolo[2,3-d]pyrimidin-2-ylamino)phenyl)-N-methylacetamide]
3 | 10 to 100 nM |  | O=C1CCc2cc(Nc3nc(NC4CC4)c4c(-c5ccncc5)c[nH]c4n3)ccc2N1 [Example 48, 6-(4-(cyclopropylamino)-5-(pyridin-4-yl)-7H-pyrrolo[2,3-d]pyrimidin-2-ylamino)-3,4-dihydroquinolin-2(1H)-one]
4 | > 1000 nM |  | CC(=O)N1CCN(c2ccc(Nc3ncc(F)c(N4CCC(CO)CC4)n3)cc2)CC1 [Example 38, 1-(4-(4-(5-fluoro-4-(4-(hydroxymethyl)piperidin-1-yl)pyrimidin-2-ylamino)phenyl)piperazin-1-yl)ethanone]
5 | > 1000 nM |  | CC(=O)N1CCN(c2ccc(Nc3ncc(F)c(N4CCC(N)CC4)n3)cc2)CC1 [Example 128, 1-(4-(4-(4-(4-aminopiperidin-1-yl)-5-fluoropyrimidin-2-ylamino)phenyl)piperazin-1-yl)ethanone]
6 | > 1000 nM |  | CC(=O)N1CCN(c2ccc(Nc3nc(NCC4CCNCC4)c4c(-c5ccncc5)c[nH]c4n3)cc2)CC1 [Example 44, 1-(4-(4-(4-(piperidin-4-ylmethylamino)-5-(pyridin-4-yl)-7H-pyrrolo[2,3-d]pyrimidin-2-ylamino)phenyl)piperazin-1-yl)ethanone]
7 | 10 to 100 nM |  | CNc1nc(Nc2ccc3cn[nH]c3c2)nc2[nH]cc(-c3ccncc3)c12 [Example 1, N2-(1H-indazol-6-yl)-N4-methyl-5-(pyridin-4-yl)-7H-pyrrolo[2,3-d]pyrimidine-2,4-diamine]
8 | > 1000 nM |  | c1cc2c(NCCCN3CCOCC3)nc(Nc3ccc4cn[nH]c4c3)nc2[nH]1 [Example 61, N2-(1H-indazol-6-yl)-N4-(3-morpholinopropyl)-7H-pyrrolo[2,3-d]pyrimidine-2,4-diamine]
9 | > 1000 nM |  | CC(=O)N(C)c1ccc(Nc2nc(NC3CCCCC3N)c3cc[nH]c3n2)cc1 (stereo not drawn) [Example 63, N-(4-(4-(2-aminocyclohexylamino)-7H-pyrrolo[2,3-d-]pyrimidin-2-ylamino)phenyl)-N-methylacetamide]
10 | 100 to 1000 nM |  | CN(C)CCCNC(=O)c1ccc(Nc2nc(NC3CCC3)c3cc[nH]c3n2)cc1 [Example 85]
11 | 100 to 1000 nM |  | COC(=O)N(C)c1ccc(Nc2nc(NC3CC3)c3cc[nH]c3n2)cc1 [Example 73]
12 | 10 to 100 nM |  | CC(=O)N(C)c1ccc(Nc2nc(NC3CC3)c3c(C#N)c[nH]c3n2)cc1 [Example 105, N-(4-(5-cyano-4-(cyclopropylamino)-7H-pyrrolo[2,3-d]pyrimidin-2-ylamino)phenyl)-N-methylacetamide]
13 | > 1000 nM |  | CC(=O)N1CCN(c2ccc(Nc3nc(NC4CCS(=O)(=O)C4)c4cc[nH]c4n3)cc2)CC1 (stereo not drawn) [Example 100A, 1-(4-(4-(4-(1,1-dioxy-tetrahydrothiophen-3-ylamino)-7H-pyrrolo[2,3-d]pyrimidin-2-ylamino)phenyl)piperazin-1-yl)ethanone]
14 | > 1000 nM |  | CN(C)CC1CCN(c2nc(Nc3ccc(C(N)=O)cc3)ncc2F)CC1 [Example 133, 4-(4-(4-((dimethylamino)methyl)piperidin-1-yl)-5-fluoropyrimidin-2-ylamino)benzamide]
15 |  | > 1000 nM | NC(=O)C1CCN(c2nc(Nc3ccc(N4CCNCC4)cc3)nc3[nH]ccc23)CC1 [Example 23, 1-(2-(4-(piperazin-1-yl)phenylamino)-7H-pyrrolo[2,3-d]pyrimidin-4-yl)piperidine-4-carboxamide]
16 | 100 to 1000 nM |  | N[C@H]1CC[C@@H](Nc2nc(Nc3ccc4c(c3)CCC(=O)N4)ncc2F)CC1 [Example 140, 6-(4-((1s,4s)-4-aminocyclohexylamino)-5-fluoropyrimidin-2-ylamino)-3,4-dihydroquinolin-2(1H)-one]
17 | 100 to 1000 nM |  | CC(=O)N1CCN(c2ccc(Nc3nc(N4CCCC(C(N)=O)C4)c4nc[nH]c4n3)cc2)CC1 (stereo not drawn) [Example 118, 1-(2-(4-(4-acetylpiperazin-1-yl)phenylamino)-9H-purin-6-yl)piperidine-3-carboxamide]

Row | IC50 [1] | IC50 (Table 4, read-out: syk IC50) | Molecule
18 | 10 to 100 nM |  | CN(C(=O)CO)c1ccc(Nc2nc(NC3CC3)c3cc[nH]c3n2)cc1 [Example 75, N-(4-(4-(cyclopropylamino)-7H-pyrrolo[2,3-d]pyrimidin-2-ylamino)phenyl)-2-hydroxy-N-methylacetamide]
19 | 10 to 100 nM |  | NC(=O)c1ccc(Nc2nc(NC3CC3)c3c(-c4ccncc4)c[nH]c3n2)cc1 [Example 101, 4-(4-(cyclopropylamino)-5-(pyridin-4-yl)-7H-pyrrolo[2,3-d]pyrimidin-2-ylamino)benzamide]
20 | > 1000 nM |  | 6-(5-fluoro-4-(3-oxopiperazin-1-yl)pyrimidin-2-ylamino)-3,4-dihydroquinolin-2(1H)-one [Example 123]
21 | 10 to 100 nM |  | CN(C(=O)CCO)c1ccc(Nc2nc(NC3CCC3)c3cc[nH]c3n2)cc1 [Example 86, N-(4-(4-(cyclobutylamino)-7H-pyrrolo[2,3-d]pyrimidin-2-ylamino)phenyl)-3-hydroxy-N-methypropanamide]
22 | 10 to 100 nM |  | NCC1CCN(c2nc(Nc3ccc4c(c3)CCC(=O)N4)ncc2Br)CC1 [Example 132, 6-(4-(4-(aminomethyl)piperidin-1-yl)-5-bromopyrimidin-2-ylamino)-3,4-dihydroquinolin-2(1H)-one]
23 | 1 to 10 nM |  | Brc1c[nH]c2nc(Nc3ccc4cn[nH]c4c3)nc(NC3CCC3)c12 [Example 49, 5-bromo-N4-cyclobutyl-N2-(1H-indazol-6-yl)-7H-pyrrolo[2,3-d]pyrimidine-2,4-diamine]
24 | 100 to 1000 nM |  | COc1ccc(Nc2nc(Nc3ccc4c(c3)CCC(=O)N4)nc3[nH]cc(C#N)c23)cc1 [Example 111, 4-(4-methoxyphenylamino)-2-(2-oxo-1,2,3,4-tetrahydroquinolin-6-ylamino)-7H-pyrrolo[2,3-d]pyrimidine-5-carbonitrile]
25 | 100 to 1000 nM |  | c1cc2c(NC3CCNCC3)nc(Nc3ccc4cn[nH]c4c3)nc2[nH]1 [Example 58, N2-(1H-indazol-6-yl)-N4-(piperidin-4-yl)-7H-pyrrolo[2,3-d]pyrimidine-2,4-diamine]
26 | 100 to 1000 nM |  | CC(=O)N1CCN(c2ccc(Nc3nc(Nc4cccc(S(N)(=O)=O)c4)c4cc[nH]c4n3)cc2)CC1 [Example 96A, 3-(2-(4-(4-acetylpiperazin-1-yl)phenylamino)-7H-pyrrolo[2,3-d]pyrimidin-4-ylamino)benzenesulfonamide]
27 |  | > 1000 nM | CC(=O)N1CCN(c2ccc(Nc3ncc(F)c(N4CCCC(C(N)=O)C4)n3)cc2)CC1 (stereo not drawn) [Example 27, 1-(2-(4-(4-acetylpiperazin-1-yl)phenylamino)-5-fluoropyrimidin-4-yl)piperidine-3-carboxamide]
28 | 100 to 1000 nM |  | CC(=O)N(C)c1ccc(Nc2nc(NCCCCCN)c3cc[nH]c3n2)cc1 [Example 65, N-(4-(4-(5-aminopentylamino)-7H-pyrrolo[2,3-d-]pyrimidin-2-ylamino)phenyl)-N-methylacetamide]
29 | 10 to 100 nM |  | CNc1nc(Nc2ccc3cn[nH]c3c2)nc2[nH]cc(-c3cccnc3)c12 [Example 3, N2-(1H-indazol-6-yl)-N4-methyl-5-(pyridin-3-yl)-7H-pyrrolo[2,3-d]pyrimidine-2,4-diamine]
30 |  | 100 to 1000 nM | CC(=O)N1CCN(c2ccc(Nc3ncc(C(N)=O)c(N4CCCC(CO)C4)n3)cc2)CC1 (stereo not drawn) [2-(4-(4-acetylpiperazin-1-yl)phenylamino)-4-(3-(hydroxymethyl)piperidin-1-yl)pyrimidine-5-carboxamide]
31 | 100 to 1000 nM |  | CN(C)CC(=O)N(C)c1ccc(Nc2nc(NC3CCC3)c3cc[nH]c3n2)cc1 [Example 84, N-(4-(4-(cyclobutylamino)-7H-pyrrolo[2,3-d]pyrimidin-2-ylamino)phenyl)-2-(dimethlamino)-N-methylacetamide]
32 | 10 to 100 nM |  | CN(C(=O)CCO)c1ccc(Nc2nc(NC3CC3)c3cc[nH]c3n2)cc1 [Example 87, N-(4-(4-(cyclopropylamino)-7H-pyrrolo[2,3-d]pyrimidin-2-ylamino)phenyl)-3-hydroxy-N-methypropanamide]
33 | > 1000 nM |  | Nc1nc(Nc2ccc(C(=O)O)cc2)nc2[nH]cc(-c3ccncc3)c12 [Example 102, 4-(4-amino-5-(pyridin-4-yl)-7H-pyrrolo[2,3-d]pyrimidin-2-ylamino)benzoic acid]
